From PubChem BioAssay (NCI)
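In this assay, cells in 96-well plates receive the compound at five concentrations for 48 hours. Endpoints are linearly interpolated between the surrounding concentrations. Here, GI50 denotes the concentration required for 50% inhibition of growth. TGI is the concentration that stops growth completely.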

Legend:
Experiment in all cases: growth of human tumour cells (NCI), 48 h; in the data active = GI50 below about 0.43 µM; inactive = the rest
[1] = test system: 786-0 renal
[2] = test system: A498 renal
[3] = test system: A549 NSCLC
[4] = test system: ACHN renal
[5] = test system: BT-549 breast
[6] = test system: CAKI-1 renal
[7] = test system: CCRF-CEM leukemia
[8] = test system: COLO 205 colon
[9] = test system: DU-145 prostate
[10] = test system: EKVX NSCLC
[11] = test system: HCC-2998 colon
[12] = test system: HCT-116 colon
[13] = test system: HCT-15 colon
[14] = test system: HL-60(TB) leukemia
[15] = test system: HOP-62 NSCLC
[16] = test system: HOP-92 NSCLC
[17] = test system: HS 578T breast
[18] = test system: HT29 colon
[19] = test system: IGROV1 ovarian
[20] = test system: K-562 leukemia
[21] = test system: KM12 colon
[22] = test system: LOX IMVI melanoma
[23] = test system: M14 melanoma
[24] = test system: MALME-3M melanoma
[25] = test system: MCF7 breast
[26] = test system: MDA-MB-231 breast
[27] = test system: MDA-MB-435
[28] = test system: MOLT-4 leukemia
[29] = test system: NCI-H226 lung
[30] = test system: NCI-H23 lung
[31] = test system: NCI-H460 lung
[32] = test system: NCI-H522 lung
[33] = test system: NCI/ADR-RES ovarian
[34] = test system: OVCAR-4 ovarian
[35] = test system: OVCAR-5 ovarian
[36] = test system: OVCAR-8 ovarian
[37] = test system: PC-3 prostate
[38] = test system: RPMI-8226 leukemia
[39] = test system: RXF 393 renal
[40] = test system: SF-268 CNS
[41] = test system: SF-295 CNS
[42] = test system: SF-539 CNS
[43] = test system: SK-MEL-2 melanoma
[44] = test system: SK-MEL-28 melanoma
[45] = test system: SK-MEL-5 melanoma
[46] = test system: SK-OV-3 ovarian
[47] = test system: SN12C renal
[48] = test system: SNB-19 CNS
[49] = test system: SNB-75 CNS
[50] = test system: SR leukemia
[51] = test system: SW-620 colon
[52] = test system: T-47D breast
[53] = test system: TK-10 renal
[54] = test system: U251 CNS
[55] = test system: UACC-257 melanoma
[56] = test system: UACC-62 melanoma
[57] = test system: UO-31 renal
[58] = test system: OVCAR-3 ovarian

Cc1ncc(NC(=O)c2ccc(CN3CCN(C)CC3)c(C(F)(F)F)c2)cc1Nc1nccc(-c2cccnc2)n1
49.7 µM: TGI [38]
33.8 µM: TGI [32]
31.6 µM: TGI [36]
37.5 µM: TGI [52]
39.7 µM: TGI [29]
28.9 µM: TGI [47]
26.7 µM: TGI [6]
21.8 µM: TGI [18]
32.3 µM: TGI [14]
3.18 µM: TGI [22]
14.4 µM: TGI [24]
30 µM: TGI [41]
31.4 µM: TGI [10]
33.7 µM: TGI [40]
27.9 µM: TGI [55]
32.9 µM: TGI [37]
29.4 µM: TGI [34] | TGI [43]
24.4 µM: TGI [19] | TGI [27] | TGI [42]
24 µM: TGI [57]
inactive: GI50 [1] 15.9 µM | GI50 [2] 20.1 µM | GI50 [3] 16.4 µM | GI50 [4] 14.2 µM | GI50 [5] 18.1 µM | GI50 [6] 13.7 µM | GI50 [7] 14.4 µM | GI50 [8] 5.55 µM | GI50 [9] 16.7 µM | GI50 [10] 17.4 µM | GI50 [11] 13.4 µM | GI50 [12] 7.92 µM | GI50 [13] 13.6 µM | GI50 [14] 8.57 µM | GI50 [15] 15.7 µM | GI50 [16] 4.5 µM | GI50 [17] 17.7 µM | GI50 [18] 2.81 µM | GI50 [19] 10.7 µM | GI50 [21] 15.3 µM | GI50 [22] 1.64 µM | GI50 [23] 10.2 µM | GI50 [24] 0.582 µM | GI50 [25] 13.8 µM | GI50 [26] 12.5 µM | GI50 [27] 12 µM | GI50 [28] 14.9 µM | GI50 [29] 19.5 µM | GI50 [30] 14.2 µM | GI50 [31] 17.4 µM | GI50 [32] 17.2 µM | GI50 [33] 17.8 µM | GI50 [34] 15.5 µM | GI50 [35] 15.8 µM | GI50 [36] 16.8 µM | GI50 [37] 16.9 µM | GI50 [38] 10 µM | GI50 [39] 11.1 µM | GI50 [40] 17.4 µM | GI50 [41] 16.2 µM | GI50 [42] 11.8 µM | GI50 [43] 14.7 µM | GI50 [44] 12.7 µM | GI50 [45] 16.3 µM | GI50 [46] 19.3 µM | GI50 [47] 14.4 µM | GI50 [48] 18 µM | GI50 [49] 15.2 µM | GI50 [50] 2.9 µM | GI50 [51] 13.5 µM | GI50 [52] 17.9 µM | GI50 [53] 21.6 µM | GI50 [54] 15.9 µM | GI50 [55] 14.4 µM | GI50 [56] 13.2 µM | GI50 [57] 11.7 µM
26.2 µM: TGI [56]
34.8 µM: TGI [33]
33 µM: TGI [31]
91.9 µM: TGI [7]
27.3 µM: TGI [4] | TGI [26]
32.1 µM: TGI [48]
23.8 µM: TGI [39]
45.7 µM: TGI [17]
22.7 µM: TGI [23]
28.3 µM: TGI [30]
39.1 µM: TGI [53]
34.9 µM: TGI [2]
30.2 µM: TGI [21] | TGI [45]
29.7 µM: TGI [1] | TGI [13] | TGI [35]
30.5 µM: TGI [15]
29.9 µM: TGI [54]
31.5 µM: TGI [3]
32.7 µM: TGI [5]
21.6 µM: TGI [8]
34.2 µM: TGI [46]
49.6 µM: TGI [28]
21 µM: TGI [16]
28.8 µM: TGI [49]
25.4 µM: TGI [44]
47.8 µM: TGI [50]
28.7 µM: TGI [25]
> 100 µM: TGI [20]
30.4 µM: TGI [9] | TGI [51]
21.7 µM: TGI [12]
26.6 µM: TGI [11]

CNC(=O)c1ccc(-c2cnc3ncc(Cc4ccc5ncccc5c4)n3n2)cc1F
91.5 µM: TGI [16]
> 100 µM: TGI [1] | TGI [2] | TGI [3] | TGI [4] | TGI [5] | TGI [6] | TGI [7] | TGI [8] | TGI [9] | TGI [11] | TGI [12] | TGI [13] | TGI [14] | TGI [15] | TGI [17] | TGI [18] | TGI [19] | TGI [20] | TGI [21] | TGI [22] | TGI [24] | TGI [25] | TGI [26] | TGI [27] | TGI [28] | TGI [29] | TGI [30] | TGI [31] | TGI [32] | TGI [33] | TGI [58] | TGI [34] | TGI [35] | TGI [36] | TGI [37] | TGI [38] | TGI [39] | TGI [40] | TGI [41] | TGI [42] | TGI [43] | TGI [44] | TGI [45] | TGI [46] | TGI [47] | TGI [48] | TGI [50] | TGI [51] | TGI [52] | TGI [53] | TGI [54] | TGI [55] | TGI [56] | TGI [57]
54.8 µM: TGI [49]
inactive: GI50 [1] 64.3 µM | GI50 [2] > 100 µM | GI50 [3] > 100 µM | GI50 [4] > 100 µM | GI50 [5] > 100 µM | GI50 [6] > 100 µM | GI50 [7] > 100 µM | GI50 [8] > 100 µM | GI50 [9] > 100 µM | GI50 [11] > 100 µM | GI50 [12] > 100 µM | GI50 [13] > 100 µM | GI50 [14] > 100 µM | GI50 [15] 94.3 µM | GI50 [16] 8.54 µM | GI50 [17] 62.7 µM | GI50 [18] > 100 µM | GI50 [19] > 100 µM | GI50 [20] > 100 µM | GI50 [21] > 100 µM | GI50 [22] > 100 µM | GI50 [24] 62.7 µM | GI50 [25] > 100 µM | GI50 [26] 40.8 µM | GI50 [27] > 100 µM | GI50 [28] > 100 µM | GI50 [29] 34.6 µM | GI50 [30] > 100 µM | GI50 [31] > 100 µM | GI50 [32] 38 µM | GI50 [33] > 100 µM | GI50 [58] > 100 µM | GI50 [34] > 100 µM | GI50 [35] > 100 µM | GI50 [36] 52.4 µM | GI50 [37] > 100 µM | GI50 [38] > 100 µM | GI50 [39] 13.4 µM | GI50 [40] 83 µM | GI50 [41] 22.1 µM | GI50 [42] 54.1 µM | GI50 [43] 97.1 µM | GI50 [44] > 100 µM | GI50 [45] > 100 µM | GI50 [46] > 100 µM | GI50 [47] > 100 µM | GI50 [48] > 100 µM | GI50 [49] 12.7 µM | GI50 [50] > 100 µM | GI50 [51] > 100 µM | GI50 [52] > 100 µM | GI50 [53] > 100 µM | GI50 [54] 75.1 µM | GI50 [55] > 100 µM | GI50 [56] > 100 µM | GI50 [57] > 100 µM
